Laboratory results published in US8420605B2, “Hydrogel compositions” (The University of Strathclyde, priority 2005, dated 2013).
Peptide text beside a SMILES is read from it. * marks the point of attachment. Fmoc = O=C(OCC1c2ccccc2-c2ccccc21)*

How the values were obtained:
Type in all cases: cell-based
[1] = tested on: human adult dermal fibroblasts; test: LDH assay of cell viability (3D culture)
Experimental: In order to quantitatively test cell viability in the 3D culture, LDH assay was adopted which tested the amount of lactate dehydrogenase inside cell […] (reflecting cell numbers).
0.0107 gram of Fmoc-Phe-Phe-OH was weighed in a glass vial and sterilized for 30 minutes by an ultraviolet light with bottles of distilled water, filtered NaOH (Sodium Hydroxide, 0.5 M/L), filtered HCl (Hydrochloric Acid, 0.5 M/L), and relevant apparatus (spatulas, pipettes, Vortex). 2 mL of the sterile distilled water was then added into the glass vial of Fmoc-Phe-Phe-OH, and the mixture was vortexed for a few seconds to create a suspension. Afterwards, approximate 100 μL of NaOH was gradually pipetted into the suspension (20 μL each pipetting) and the mixture was vortexed after every addition of the alkaline. The whole mixture was shaken continually until a homogeneous transparent solution was obtained. The basic peptide solution (pH around 10) was finally neutralized to pH 7 by dropwise addition of HCl and pH values were monitored by a pH meter with a micro-probe. […]
The culture was maintained in a 37° C./5% CO2 incubator for a 10 day period and LDH assay was carried out after 1 hour, 1 day, 3 days, 7 days, and 10 days. […] Assay reagent was then added, the mixture was incubated, and light absorbance at 490 nm was then measured. Absorbance was converted to cell number according to a standard. […]

[2] = tested on: human adult dermal fibroblast; test: 3D culture inside peptide gels, cell shape; details: 10 mM/L gel, cells seeded inside the gel
Experimental: With 10 mM/L Fmoc-Phe-Phe-OH self-assembled hydrogels, human adult dermal fibroblast were also seeded 3 dimensionally (3D culture) inside the peptide gels. […] Despite proliferation, whether ECM components (proteins and saccharides) were synthesized and secreted by these cells is another way to justify cells' reaction to the material. However, viability of the cells is of necessity to maintain a steady ECM secretion or to restore proliferation after possible cell spreading at later time points.

bovine chondrocytes = test: Culture of chondrocytes on/in hydrogel scaffold (proliferation and retention of phenotype); details: cell culture of up to 7 days
Experimental: Bovine chondrocytes were isolated from cartilage of the proximal side of the metacarpalphalangeal joint, washed in PBS and incubated overnight in Dulbeccos Modified Eagles Medium (DMEM) supplemented with 10% foetal calf serum, 100 units ml^−1 penicillin/streptomycin and 0.85 mM ascorbic acid. The cartilage was finely chopped and incubated with pronase type E (700 units ml^−1) (BDH Ltd., Poole, UK) in medium for 2 h followed by collagenase type 1a (300 units ml^−1) (SIGMA-ALDRICH Co. Ltd., Poole, UK) in medium for 2 h. The cell suspension was centrifuged at 1500 rpm for 5 min to pellet the cells. The cells were washed twice in medium and seeded directly onto the peptide scaffolds (and tissue culture plastic control) or encapsulated within the scaffolds during the gelation stage at a cell density of 5×10^5 ml^−1 in medium. The cultures were maintained in an incubator at 37° C. with a humidified atmosphere of 5% CO2 for up to 4 weeks. Chondrocytes were used up to passage 5.
Finally, all three gels prepared (ie. entries 1, 2 and 3) were tested for their ability to support proliferation and retention of phenotype of bovine chondrocytes. […]
The rounded cell shape is the typical phenotype for chondrocytes. […] Two-photon fluorescence microscopy was used to observe samples stained with DAPI, a fluorescent nucleic acid stain that enables visualisation of cell nuclei.

## O=C(N[C@@H](Cc1ccccc1)C(=O)N[C@@H](Cc1ccccc1)C(=O)O)OCC1c2ccccc2-c2ccccc21 [Entry 1, Fmoc-Phe-Phe-OH] (Fmoc-Phe-Phe-OH)
[1]; 3D culture, 10 day period
  cell number (LDH assay), initial course: initially a decreasing of cell numbers
[1]; from day 7 to day 10, 3D culture
  cell number increase (LDH assay): 5 folds
[2]
  cell shape in 3D culture: oval to round cell shape remained for a long term
Bovine chondrocytes
  retention of morphological phenotype and proliferation of chondrocytes: cell morphological phenotype is retained
